Activity calls are given as the source filed them. The calls are words filed in the database; no cut-off is given here.
Legend:
A2780S [1] = test: Cytotoxicity in human A2780S assessed as inhibition in cell growth measured after 24 hrs by MTT assay; type: functional, cell-based
A2780/Taxol [2] = test: Cytotoxicity in human A2780T assessed as inhibition in cell growth measured after 24 hrs by MTT assay; type: functional, cell-based
A549/TR = test: Cytotoxicity in human A549T assessed as inhibition in cell growth measured after 24 hrs by MTT assay; type: functional, cell-based
NCI/ADR-RES = test: Cytotoxicity in human NCI-ADR-RES assessed as inhibition in cell growth measured after 24 hrs by MTT assay; type: functional, cell-based
[3] = Drug resistance index, ratio of IC50 for human A2780S cancer cell to ratio of IC50 for human A2780T cancer cell; type: functional
[4] = Drug resistance index, ratio of IC50 for human A549 cancer cell to ratio of IC50 for human A549T cancer cell; type: functional
[5] = Drug resistance index, ratio of IC50 for human MCF7 cancer cell to ratio of IC50 for human NCI-ADR-RES cancer cell; type: functional
A2780S [6] = test: Effect on microtubule network in human A2780S cells assessed as bundling of microtubule fibers near nucleus at 100 nM for 24 hrs; type: functional, cell-based
A2780S [7] = test: Antitumor activity against human A2780S cells xenografted in mouse assessed as tumor growth inhibition at 20 mg/kg, ip; type: functional; conditions: read-out: TGI
A2780/Taxol [8] = test: Antitumor activity against human A2780T cells xenografted in mouse assessed as tumor growth inhibition at 10 mg/kg, iv treated 3 times a week; type: functional; conditions: read-out: TGI
A2780/Taxol [9] = test: Antitumor activity against human A2780T cells xenografted in mouse assessed as tumor growth inhibition at 20 mg/kg, iv treated 3 times a week; type: functional; conditions: read-out: TGI
A2780/Taxol [10] = test: Antitumor activity against human A2780T cells xenografted in mouse assessed as tumor growth inhibition at 40 mg/kg, iv treated 3 times a week; type: functional; conditions: read-out: TGI
A2780/Taxol [11] = test: Antitumor activity against mouse xenografted with human A2780T cell assessed as tumor growth inhibition at 20 mg/kg, ip; type: functional; conditions: read-out: TGI
HeLa [12] = test: Induction of Alpha/beta tubulin degradation in human HeLa cells pretreated with PYR-41 at 10 uM for 1 hrs followed by compound addition measured after 16 hrs by Western blot analysis; type: cell-based
HeLa [13] = test: Induction of Alpha/beta tubulin degradation in human HeLa cells pretreated with colchicine at 10 uM for 1 hrs by Western blot analysis; type: cell-based
MCF7 [14] = test: Antiproliferative activity against human MCF7 cells assessed as reduction in cell viability measured after 24 hrs by MTT assay; type: functional, cell-based; conditions: MCF7, 24 h
HeLa [15] = test: Antiproliferative activity against human HeLa cells assessed as reduction in cell viability measured after 24 hrs by MTT assay; type: functional, cell-based
Raji = test: Antiproliferative activity against human Raji cells assessed as reduction in cell viability measured after 24 hrs by MTT assay; type: functional, cell-based
NCI-H460 = test: Antiproliferative activity against human NCI-H460 cells assessed as reduction in cell viability measured after 24 hrs by MTT assay; type: functional, cell-based; conditions: NCI-H460, 24 h
A2780S [16] = test: Antiproliferative activity against human A2780S cells assessed as reduction in cell viability measured after 24 hrs by MTT assay; type: functional, cell-based
HeLa [17] = test: Induction of Alpha/beta tubulin degradation in human HeLa cells pretreated with colchicine at 10 uM for 1 hrs followed by compound addition measured after 16 hrs by Western blot analysis; type: cell-based
HeLa [18] = test: Induction of Beta tubulin degradation in human HeLa cells pretreated with MG132 at 10 uM for 1 hrs followed by compound addition measured after 16 hrs by Western blot analysis; type: cell-based
A549 = test: Cytotoxicity in human A549 assessed as inhibition in cell growth measured after 24 hrs by MTT assay; type: functional, cell-based; conditions: A549, 24 h
MCF7 [19] = test: Cytotoxicity in human MCF7 assessed as inhibition in cell growth measured after 24 hrs by MTT assay; type: functional, cell-based; conditions: MCF7, 24 h
[20] = Half life in rat at 5 mg/kg, iv; type: ADME, organism-based; conditions: in vivo
[21] = Half life in rat at 5 mg/kg, po; type: ADME, organism-based; conditions: in vivo
[22] = Clearance in rat at 5 mg/kg, iv; type: ADME, organism-based; conditions: in vivo
[23] = Clearance in rat at 5 mg/kg, po; type: ADME, organism-based; conditions: in vivo
[24] = Volume of distribution at steady state in rat at 5 mg/kg, iv; type: ADME, organism-based; conditions: in vivo, read-out: Vdss
[25] = Volume of distribution at steady state in rat at 5 mg/kg, po; type: ADME, organism-based; conditions: in vivo
[26] = Cmax in rat plasma at 5 mg/kg, iv; type: ADME, organism-based; set-up: route intravenous, dose 5 mg/kg
[27] = Cmax in rat at 5 mg/kg, po; type: ADME, organism-based; set-up: route oral, dose 5 mg/kg; conditions: in vivo
[28] = Oral bioavailability in rat at 5 mg/kg; type: ADME, organism-based; conditions: in vivo
A2780S [29] = test: Induction of cell cycle arrest in human A2780S cells assessed as accumulation at G2/M phase at 100 nM measured after 48 hrs by flow cytometry analysis relative to control; type: functional
A2780/Taxol [30] = test: Induction of cell cycle arrest in human A2780T cells assessed as accumulation at G2/M phase at 100 nM measured after 48 hrs by flow cytometry analysis relative to control; type: functional
A2780S [31] = test: Induction of cell cycle arrest in human A2780S cells assessed as accumulation at G2/M phase at 300 nM measured after 48 hrs by flow cytometry analysis relative to control; type: functional
A2780/Taxol [32] = test: Induction of cell cycle arrest in human A2780T cells assessed as accumulation at G2/M phase at 300 nM measured after 48 hrs by flow cytometry analysis relative to control; type: functional
A2780S [33] = test: Induction of apoptosis in PTX sensitive human A2780S cells at 100 to 300 nM incubated for 48 hrs by Annexin V-FITC/PI staining based flow cytometry method; type: functional, cell-based; conditions: dose 100-300 nM
A2780/Taxol [34] = test: Induction of apoptosis in PTX resistant human A2780T cells at 100 to 300 nM incubated for 48 hrs by Annexin V-FITC/PI staining based flow cytometry method; type: functional, cell-based; conditions: dose 100-300 nM
A2780S [35] = test: Induction of apoptosis in human A2780S cells assessed as late apoptotic cells level at 30 nM incubated for 48 hrs by Annexin V-FITC/PI staining based flow cytometry (reference value: 5.2%); type: functional
A2780S [36] = test: Induction of apoptosis in human A2780S cells assessed as late apoptotic cells level at 100 nM incubated for 48 hrs by Annexin V-FITC/PI staining based flow cytometry (reference value: 5.2%); type: functional
A2780S [37] = test: Induction of apoptosis in human A2780S cells assessed as late apoptotic cells level at 300 nM incubated for 48 hrs by Annexin V-FITC/PI staining based flow cytometry (reference value: 5.2%); type: functional
Tubulin (Homo sapiens) = Tubulin (Homo sapiens) (UniProt P68371+Q9H4B7+P0DPH7+P68366+Q13509+Q71U36+P04350+Q3ZCM7+P07437+P68363+Q9BQE3+Q6PEY2+Q13885+Q9BVA1+Q9BUF5); test: Inhibition of tubulin polymerization in human A2780S cells assessed as microtubule network polymerization at 10 to 1000 nM after 24 hrs by immunofluorescence analysis; type: cell-based; conditions: dose 10-1000 nM
HUVEC [38] = test: Antimigratory activity against human HUVEC cells assessed as reduction in cell migration at upto 10 nM incubated for 24 hrs by wound healing assay; type: functional; set-up: scale not given: the % may be the effect or the level left; conditions: dose nM <=10
HUVEC [39] = test: Antimigratory activity against human HUVEC cells assessed as reduction in cell migration at upto 10 nM incubated for 48 hrs by wound healing assay; type: functional; set-up: scale not given: the % may be the effect or the level left; conditions: dose nM <=10
HUVEC [40] = test: Antimigratory activity against human HUVEC cells assessed as reduction in tumor cell migration at upto 5 nM incubated for 24 hrs by wound healing assay relative to control; type: functional; set-up: scale not given: the % may be the effect or the level left; conditions: dose nM <=5
HUVEC [41] = test: Antimigratory activity against human HUVEC cells assessed as reduction in cell migration at upto 5 nM incubated for 48 hrs by wound healing assay relative to control; type: functional; set-up: scale not given: the % may be the effect or the level left; conditions: dose nM <=5
HUVEC [42] = test: Antimigratory activity against human HUVEC cells assessed as reduction in metastasis at upto 5 nM incubated for 24 hrs by wound healing assay; type: functional, cell-based; conditions: dose nM <=5, time 24.0 hrs
HUVEC [43] = test: Antimigratory activity against human HUVEC cells assessed as reduction in metastasis at upto 5 nM incubated for 48 hrs by wound healing assay; type: functional, cell-based; conditions: dose nM <=5, time 48.0 hrs
A2780S [44] = test: Antitumor activity against human A2780S cells xenografted in mouse assessed as tumor growth inhibition at 10 mg/kg, iv measured on three times in week; type: functional; conditions: read-out: TGI
A2780S [45] = test: Antitumor activity against human A2780S cells xenografted in mouse assessed as tumor growth inhibition at 20 mg/kg, iv measured on three times in week; type: functional; conditions: read-out: TGI
A2780S [46] = test: Antitumor activity against human A2780S cells xenografted in mouse assessed as tumor growth inhibition at 40 mg/kg, iv; type: functional; conditions: read-out: TGI
[47] = Toxicity in mouse xenografted with human A2780S cells assessed as body weight loss at 40 mg/kg, iv; type: organism-based; conditions: in vivo
A2780S [48] = test: Antitumor activity against mouse xenografted with human A2780S cell assessed as tumor growth inhibition at 40 mg/kg, po; type: functional; conditions: read-out: TGI
[49] = Toxicity in mouse xenografted with human A2780S cells assessed as body weight loss at 40 mg/kg, po; type: organism-based; conditions: in vivo
HeLa [50] = test: Induction of Alpha/beta tubulin degradation in human HeLa cells measured after 16 hrs by immunoblot analysis; type: cell-based; conditions: dose 0-50 µM
HeLa [51] = test: Induction of Beta tubulin degradation in human HeLa cells at upto 10 uM for 16 hrs by immunoblot analysis; type: cell-based; conditions: dose microM <=10, time 16.0 hrs
K562 = test: Induction of Beta tubulin degradation in human K562 cells at upto 10 uM for 16 hrs by immunoblot analysis; type: cell-based; conditions: dose microM <=10, time 16.0 hrs

CC(=O)O[C@H]1C(=O)[C@@]2(C)[C@H]([C@H](OC(=O)c3ccccc3)[C@]3(O)C[C@H](OC(=O)[C@H](O)[C@@H](NC(=O)c4ccccc4)c4ccccc4)C(C)=C1C3(C)C)[C@]1(OC(C)=O)CO[C@@H]1C[C@@H]2O [PACLITAXEL]
IC50 (A2780S [1]): 60.4 nM | IC50 (A2780/Taxol [2]): 58900 nM | IC50 (A549/TR): 802 nM | IC50 (NCI/ADR-RES): 9340 nM | Ratio IC50 [3]: 974.4 | Ratio IC50 [4]: 33.1 | Ratio IC50 [5]: 289 | Activity (A2780S [6]): Active | inhibition in vivo at 20 mg/kg (A2780S [7]): 66.1% | inhibition in vivo at 10 mg/kg (A2780/Taxol [8]): 26.9% | inhibition in vivo at 20 mg/kg (A2780/Taxol [9]): 37.2% | inhibition in vivo at 40 mg/kg (A2780/Taxol [10]): 75.7% | inhibition in vivo at 20 mg/kg (A2780/Taxol [11]): 21.7%

c1cc(CNc2cc3c(cn2)[nH]c2ccccc23)cc(Oc2ccc3c(c2)OCO3)c1
Activity (HeLa [12]): Active | Activity (HeLa [13]): Active | IC50 (MCF7 [14]): 9 nM | IC50 (HeLa [15]): 5 nM | IC50 (Raji): 13 nM | IC50 (NCI-H460): 14 nM | IC50 (A2780S [16]): 8 nM | Activity (HeLa [17]): Active | Activity (HeLa [18]): Active | IC50 (A2780S [1]): 16.4 nM | IC50 (A2780/Taxol [2]): 13.1 nM | IC50 (A549): 60.1 nM | IC50 (A549/TR): 63.8 nM | IC50 (MCF7 [19]): 11.3 nM | IC50 (NCI/ADR-RES): 13.5 nM | Ratio IC50 [3]: 0.8 | Ratio IC50 [4]: 1.1 | Ratio IC50 [5]: 1.2 | half-life [20]: 3.57 h | half-life [21]: 4.42 h | clearance [22]: 25.3 mL/min/kg | CL/F [23]: 84.3 mL/min/kg | Vd [24]: 8.08 L/kg | Vdss [25]: 35.26 L/kg | Cmax [26]: 189 ng/mL | Cmax [27]: 2600 ng/mL | bioavailability [28]: 30.7% | Activity (A2780S [29]): 55.1% | Activity (A2780/Taxol [30]): 72.18% | Activity (A2780S [31]): 79.54% | Activity (A2780/Taxol [32]): 72.89% | Activity (A2780S [33]): Active | Activity (A2780/Taxol [34]): Active | Activity (A2780S [35]): 3.7% | Activity (A2780S [36]): 25.2% | Activity (A2780S [37]): 30.6% | Activity (Tubulin (Homo sapiens)): inactive | Activity (HUVEC [38]): 20.8% | Activity (HUVEC [39]): 28.47% | Activity (HUVEC [40]): 76.21% | Activity (HUVEC [41]): 85.07% | Activity (HUVEC [42]): Active | Activity (HUVEC [43]): Active | inhibition in vivo at 10 mg/kg (A2780S [44]): 66.1% | inhibition in vivo at 20 mg/kg (A2780S [45]): 71.5% | inhibition in vivo at 40 mg/kg (A2780S [46]): 92.4% | Activity [47]: Non-Toxic | inhibition in vivo at 40 mg/kg (A2780S [48]): 34.9% | Activity [49]: Toxic | Activity (HeLa [50]): Active | Activity (HeLa [51]): Active | Activity (K562): Active
